Experiments:
[1] = biological target: T1, human recombinant adrenergic α1D receptor (Homo sapiens, UniProt P25100); assay: Adrenergic alpha1D radioligand binding ([3H]Prozosin); conditions: compound at 1 μM; read-out: Adrenergic (1 μM) α1D, percent inhibition of specific binding
T1 construct: expressed in transfected cells; host or cells: HEK-293 cells
T1 sequence (P25100 1-572): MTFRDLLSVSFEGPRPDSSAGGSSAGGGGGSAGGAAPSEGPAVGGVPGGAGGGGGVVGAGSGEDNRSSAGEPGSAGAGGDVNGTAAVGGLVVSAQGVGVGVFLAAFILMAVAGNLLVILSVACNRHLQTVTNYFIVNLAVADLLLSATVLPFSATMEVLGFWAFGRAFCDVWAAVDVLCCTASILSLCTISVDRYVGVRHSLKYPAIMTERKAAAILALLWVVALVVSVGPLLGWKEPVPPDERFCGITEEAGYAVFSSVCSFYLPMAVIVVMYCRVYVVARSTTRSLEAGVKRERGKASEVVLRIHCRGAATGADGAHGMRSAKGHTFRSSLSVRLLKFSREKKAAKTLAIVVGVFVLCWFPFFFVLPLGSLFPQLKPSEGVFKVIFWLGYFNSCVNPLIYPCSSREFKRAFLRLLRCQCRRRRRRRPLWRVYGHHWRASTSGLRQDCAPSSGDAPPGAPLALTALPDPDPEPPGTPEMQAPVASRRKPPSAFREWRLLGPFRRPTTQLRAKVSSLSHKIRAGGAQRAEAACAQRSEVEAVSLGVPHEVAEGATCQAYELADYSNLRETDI
Protocol: To evaluate in radioligand binding assays the activity of compounds of the invention, human recombinant adrenergic α1D receptor expressed in human embryonic kidney (HEK-293) cells (Kenny, B. A. et al. Br. J. Pharmacol. 115(6):981, 1995) in a 50 mM Tris-HCl buffer, pH 7.4, was used. Compounds of invention were incubated with 0.6 nM [^3H]Prozosin for 60 min. at 25° C. Non-specific binding was estimated in the presence of 10 μM phentolamine. Receptor proteins were filtered and washed, the filters were then counted to determine [^3H]Prozosin specifically bound. Compounds were screened at 1 μM or lower, using 1% DMSO as vehicle. Biochemical assay results are presented as the percent inhibition of specific binding in Table 5.

[2] = biological target: T2, human recombinant serotonin (5-Hydroxytryptamine) 5-HT6 receptor (Homo sapiens, UniProt P50406); assay: Serotonin 5-HT6 radioligand binding ([3H]LSD); conditions: compound at 1 μM; read-out: Serotonin (1 μM) 5-HT6, percent inhibition of specific binding
T2 construct: expressed in transfected cells; host or cells: human HeLa cells
T2 sequence (P50406 whole entry): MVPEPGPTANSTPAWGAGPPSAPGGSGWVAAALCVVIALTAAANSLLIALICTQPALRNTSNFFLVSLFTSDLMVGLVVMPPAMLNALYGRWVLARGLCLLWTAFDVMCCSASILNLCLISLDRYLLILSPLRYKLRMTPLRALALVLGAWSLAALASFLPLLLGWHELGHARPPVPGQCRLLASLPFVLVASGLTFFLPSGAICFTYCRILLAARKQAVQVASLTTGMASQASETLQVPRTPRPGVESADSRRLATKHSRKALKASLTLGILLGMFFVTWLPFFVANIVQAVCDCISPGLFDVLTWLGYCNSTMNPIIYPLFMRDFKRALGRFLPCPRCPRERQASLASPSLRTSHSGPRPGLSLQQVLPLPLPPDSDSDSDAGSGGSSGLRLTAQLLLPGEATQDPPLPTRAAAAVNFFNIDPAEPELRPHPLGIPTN
How it was run: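 Human recombinant 5-HT6 receptor from HeLa cells incubated with 1.5 nM [3H]LSD for 120 min at 37° C in 50 mM Tris-HCl pH 7.4, 150 mM NaCl, 2 mM ascorbic acid, 0.001% BSA. Nonspecific binding defined with 5 μM serotonin; bound ligand counted after filtration.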

[3] = biological target: T3, human recombinant histamine H2 receptor (Homo sapiens, UniProt P25021); assay: Histamine H2 radioligand binding ([125I]Aminopotentidine); conditions: compound at 1 μM; read-out: Histamine Binding (1 μM) H2, percent inhibition of specific binding
T3 construct: expressed in transfected cells; host or cells: CHO-K1 cells
T3 sequence (P25021 whole entry): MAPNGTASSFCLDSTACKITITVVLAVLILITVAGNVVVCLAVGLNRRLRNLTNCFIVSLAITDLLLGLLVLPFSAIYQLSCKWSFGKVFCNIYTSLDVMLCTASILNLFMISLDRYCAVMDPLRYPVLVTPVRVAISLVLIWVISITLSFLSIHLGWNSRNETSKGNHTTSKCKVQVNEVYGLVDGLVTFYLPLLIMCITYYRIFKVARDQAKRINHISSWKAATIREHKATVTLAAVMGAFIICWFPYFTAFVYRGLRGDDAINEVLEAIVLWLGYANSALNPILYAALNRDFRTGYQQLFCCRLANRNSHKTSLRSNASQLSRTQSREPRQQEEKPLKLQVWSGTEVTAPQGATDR
How it was run: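 Membranes from CHO-K1 cells expressing recombinant human H2 receptor, in 50 mM phosphate buffer pH 7.4, incubated with 0.1 nM [125I]aminopotentidine for 120 min at 25 °C; nonspecific binding defined with 3 μM tiotidine.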

[4] = biological target: T4, human recombinant serotonin (5-Hydroxytryptamine) 5-HT2A receptor (Homo sapiens, UniProt P28223); assay: Serotonin 5-HT2A radioligand binding ([3H]Ketanserin); conditions: compound at 1 μM; read-out: Serotonin (1 μM) 5-HT2A, percent inhibition of specific binding
T4 construct: expressed in transfected cells; host or cells: CHO-K1 cells
T4 sequence (P28223 whole entry): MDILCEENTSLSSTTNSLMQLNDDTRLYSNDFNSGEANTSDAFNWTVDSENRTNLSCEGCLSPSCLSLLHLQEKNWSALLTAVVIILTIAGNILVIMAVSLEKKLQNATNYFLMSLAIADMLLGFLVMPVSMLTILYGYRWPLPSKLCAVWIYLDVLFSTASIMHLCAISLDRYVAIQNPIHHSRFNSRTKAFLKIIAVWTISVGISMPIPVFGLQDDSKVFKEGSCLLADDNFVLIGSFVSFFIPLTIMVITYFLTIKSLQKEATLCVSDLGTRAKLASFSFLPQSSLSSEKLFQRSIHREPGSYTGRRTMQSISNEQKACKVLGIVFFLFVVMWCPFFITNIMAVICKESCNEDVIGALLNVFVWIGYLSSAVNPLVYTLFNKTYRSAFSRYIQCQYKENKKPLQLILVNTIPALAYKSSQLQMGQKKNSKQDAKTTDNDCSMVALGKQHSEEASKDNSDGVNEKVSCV
How it was run: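 Percent inhibition of specific [3H]ketanserin (0.5 nM) binding, filtration read-out, with compounds at ≤1 μM (1% DMSO vehicle). Receptor source: recombinant human 5-HT2A in CHO-K1 cells, 50 mM Tris-HCl pH 7.4, 60 min, 25 °C; 1 μM mianserin gives nonspecific binding.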

| Compound | inhibition at 1 µM [1] [%] | inhibition at 1 µM [2] [%] | inhibition at 1 µM [3] [%] | inhibition at 1 µM [4] [%] |
| --- | --- | --- | --- | --- |
| C=C(Cn1c2c(c3cc(Cl)ccc31)CCN(C)CC2)c1ccc(Cl)cc1 [Compound No. 35, 9-chloro-6-(2-(4-chlorophenyl)allyl)-3-methyl-1,2,3,4,5,6-hexahydroazepino[4,5-b]indole] | 96 | 102 | 104 | 99 |
| C/C(=C\n1c2c(c3cc(Cl)ccc31)CCN(C)CC2)c1ccc(Cl)cc1 [Compound No. 36, 9-chloro-6-((E)-2-(4-chlorophenyl)prop-1-enyl)-1,2,3,4,5,6-hexahydro-3-methylazepino[4,5-b]indole] | 95 | 99 | 104 | 97 |
| CN1CCc2c(n(CC(=O)Nc3ccc(F)cc3)c3ccc(Cl)cc23)CC1 [Compound No. 37, 2-(9-chloro-2,3,4,5-tetrahydro-3-methylazepino[4,5-b]indol-6(1H)-yl)-N-(4-fluorophenyl) acetamide] | 14 | 12 | 4 | 91 |
| Cc1ccc2c(c1)c1c(n2CC(=O)N2CCOCC2)CCN(C)CC1 [Compound No. 38, 2-(2,3,4,5-tetrahydro-3,9-dimethylazepino[4,5-b]indol-6(1H)-yl)-1-morpholinoethanone] | 38 | 41 | 26 | 96 |
| Cc1ccc2c(c1)c1c(n2/C=C/c2ccc(F)cc2)CCN(C)CC1 [Compound No. 39, 6-(4-fluorostyryl)-1,2,3,4,5,6-hexahydro-3,9-dimethylazepino[4,5-b]indole] | 99 | 103 | 91 | 98 |
| CN1CCc2c(n(CC(O)c3ccccc3F)c3ccc(Cl)cc23)CC1 (centres unmarked) [Compound No. 40, 2-(9-chloro-2,3,4,5-tetrahydro-3-methylazepino[4,5-b]indol-6(1H)-yl)-1-(2-fluorophenyl)ethanol] | 64 | 101 | 61 | 97 |
| Cc1ccc2c(c1)c1c(n2CC(O)c2ccccc2F)CCN(C)CC1 (centres unmarked) [Compound No. 41, 1-(2-fluorophenyl)-2-(2,3,4,5-tetrahydro-3,9-dimethylazepino[4,5-b]indol-6(1H)-yl)ethanol] | 75 | 101 | 52 | 99 |
| CN1CCc2c(n(CC(O)c3ccncc3)c3ccc(Cl)cc23)CC1 (centres unmarked) [Compound No. 42, 2-(9-chloro-2,3,4,5-tetrahydro-3-methylazepino[4,5-b]indol-6(1H)-yl)-1-(pyridin-4-yl)ethanol] | 73 | 73 | 45 | 95 |
| Cc1ccc2c(c1)c1c(n2CC(O)c2ccncc2)CCN(C)CC1 (centres unmarked) [Compound No. 43, 2-(2,3,4,5-tetrahydro-3,9-dimethylazepino[4,5-b]indol-6(1H)-yl)-1-(pyridin-4-yl)ethanol] | 70 | 48 | 30 | 93 |
| Cc1ccc2c(c1)c1c(n2CC(=O)Nc2ccc(F)cc2)CCN(C)CC1 [Compound No. 44, N-(4-fluorophenyl)-2-(2,3,4,5-tetrahydro-3,9-dimethylazepino[4,5-b]indol-6(1H)-yl)acetamide] | 10 | 1 | 1 | 17 |
| Cc1ccc2c(c1)c1c(n2CC(=O)N2CCCC2)CCN(C)CC1 [Compound No. 45, 2-(2,3,4,5-tetrahydro-3,9-dimethylazepino[4,5-b]indol-6(1H)-yl)-1-(pyrrolidin-1-yl)ethanone] | 1 | 2 | 7 | 22 |
| Cc1ccc(CCn2c3c(c4cc(Cl)ccc42)CCN(C)CC3)cc1 [Compound No. 46, 9-chloro-3-methyl-6-(4-methylphenethyl)-1,2,3,4,5,6-hexahydroazepino[4,5-b]indole] | 88 | 98 | 89 | 100 |
| COc1ccc(C(O)Cn2c3c(c4cc(Cl)ccc42)CCN(C)CC3)cc1 (centres unmarked) [Compound No. 47, 2-(9-chloro-2,3,4,5-tetrahydro-3-methylazepino[4,5-b]indol-6(1H)-yl)-1-(4-methoxyphenyl)ethanol] | 97 | 77 | 70 | 99 |
| COc1ccc(C(O)Cn2c3c(c4cc(C)ccc42)CCN(C)CC3)cc1 (centres unmarked) [Compound No. 48, 2-(2,3,4,5-tetrahydro-3,9-dimethylazepino[4,5-b]indol-6(1H)-yl)-1-(4-methoxyphenyl) ethanol] | 95 | 73 | 56 | 97 |
| COc1ccc(C(O)Cn2c3c(c4cc(Cl)ccc42)CCN(C)CC3)c(F)c1 (centres unmarked) [Compound No. 49, 2-(9-chloro-2,3,4,5-tetrahydro-3-methylazepino[4,5-b]indol-6(1H)-yl)-1-(2-fluoro-4-methoxyphenyl) ethanol] | 71 | 88 | 65 | 97 |
| COc1ccc(C(O)Cn2c3c(c4cc(C)ccc42)CCN(C)CC3)c(F)c1 (centres unmarked) [Compound No. 50, 1-(2-fluoro-4-methoxyphenyl)-2-(2,3,4,5-tetrahydro-3,9-dimethylazepino[4,5-b]indol-6(1H)-yl)ethanol] | 84 | 88 | 65 | 98 |
| CN1CCc2c(n(CC(O)c3ccc(F)cc3)c3ccc(Cl)cc23)CC1 (centres unmarked) [Compound No. 51, 2-(9-chloro-2,3,4,5-tetrahydro-3-methylazepino[4,5-b]indol-6(1H)-yl)-1-(4-fluorophenyl) ethanol] | 85 | 94 | 70 | 97 |
| Cc1ccc2c(c1)c1c(n2CC(O)c2ccc(F)cc2)CCN(C)CC1 (centres unmarked) [Compound No. 52, 1-(4-fluorophenyl)-2-(2,3,4,5-tetrahydro-3,9-dimethylazepino[4,5-b]indol-6(1H)-yl)ethanol] | 91 | 84 | 61 | 97 |
| CN1CCc2c(n(CC(=O)N3CCCC3)c3ccc(Cl)cc23)CC1 [Compound No. 53, 2-(9-chloro-2,3,4,5-tetrahydro-3-methylazepino[4,5-b]indol-6(1H)-yl)-1-(pyrrolidin-1-yl)ethanone] | 13 | -1 | 3 | 41 |
| Cc1ccc2c(c1)c1c(n2CC(=O)NC(C)C)CCN(C)CC1 [Compound No. 54, 2-(2,3,4,5-tetrahydro-3,9-dimethylazepino[4,5-b]indol-6(1H)-yl)-N-isopropylacetamide] | -1 | -10 | -3 | 1 |

Source: patent US9481676B2, “Azepino[4,5-B]indoles and methods of use” (Medivation Technologies, Inc., priority 2008, dated 2016)
